Measurements: US9901573B2, “Compositions, methods, and kits for regulating energy metabolism” (NuSirt Sciences, Inc., priority 2012, dated 2018)

Assays:
C2C12 myotubes = test: Fatty acid oxidation (O2 consumption response to palmitate) in myotubes; format: cell-based; details: FIG. 4/5, 24 hours, leucine, valine, isoleucine 0.5 mM, B6 100 nM as pyridoxal phosphate, vs control
Protocol: Cell Culture: C2C12 and 3T3-L1 preadipocytes (American Type Culture Collection) were plated at a density of 8000 cells/cm^2 (10 cm^2 dish) and grown in Dulbecco's modified eagle's medium (DMEM) containing 10% fetal bovine serum (FBS), and antibiotics (growth medium) at 37° C. in 5% CO2. Confluent 3T3-L1 preadipocytes were induced to differentiate with a standard differentiation medium consisting of DMEM medium supplemented with 10% FBS, 250 nM dexamethasone, 0.5 mM 3-Isobutyl-1-methylxanthine (IBMX) and 1% penicillin-streptomycin. Preadipocytes were maintained in this differentiation medium for 3 days and subsequently cultured in growth medium. Cultures were re-fed every 2-3 days to allow >90% cells to reach fully differentiation before conducting chemical treatment. For differentiation of C2C12 cells, cells were grown to 100% confluence, transferred to differentiation medium (DMEM with 2% horse serum and 1% penicillin-streptomycin), and fed with fresh differentiation medium every day until myotubes were fully formed (3 days). Fatty acid oxidation: Cellular oxygen consumption was measured using a Seahorse Bioscience XF24 analyzer (Seahorse Bioscience, Billerica, Mass.) in 24-well plates at 37° C., as described by Feige et al (1) with slight modifications. Cells were seeded at 40,000 cells per well, differentiated as described above, treated for 24 hours with the indicated treatments, washed twice with non-buffered carbonate-free pH 7.4 low glucose (2.5 mM) DMEM containing carnitine (0.5 mM), equilibrated with 550 μL of the same media in a non-CO2 incubator for 45 minutes, and then inserted into the instrument for 15 minutes of further equilibration, followed by O2 consumption measurement. Three successive baseline measurements at five-minute intervals were taken prior to injection of palmitate (200 μM final concentration). Four successive 5-minute measurements of O2 consumption were then conducted, followed by 10 minute re-equilibration and another 3-4 5-minute measurements. This measurement pattern was then repeated over a 4-6 hour period. Data for each sample were normalized to the pre-palmitate injection baseline for that sample and expressed as % change from that baseline. […] The area under of the curve of O2 consumption change from baseline for each sample was then calculated and used for subsequent analysis.

Phospho-AMPKα (Thr172) = Phospho-AMPKα (Thr172) Western blot in myotubes; format: cell-based; details: C2C12 myotubes, FIG. 11
Protocol: (§1) Cell Culture: C2C12 and 3T3-L1 preadipocytes (American Type Culture Collection) were plated at a density of 8000 cells/cm^2 (10 cm^2 dish) and grown in Dulbecco's modified eagle's medium (DMEM) containing 10% fetal bovine serum (FBS), and antibiotics (growth medium) at 37° C. in 5% CO2. Confluent 3T3-L1 preadipocytes were induced to differentiate with a standard differentiation medium consisting of DMEM medium supplemented with 10% FBS, 250 nM dexamethasone, 0.5 mM 3-Isobutyl-1-methylxanthine (IBMX) and 1% penicillin-streptomycin. Preadipocytes were maintained in this differentiation medium for 3 days and subsequently cultured in growth medium. Cultures were re-fed every 2-3 days to allow >90% cells to reach fully differentiation before conducting chemical treatment. For differentiation of C2C12 cells, cells were grown to 100% confluence, transferred to differentiation medium (DMEM with 2% horse serum and 1% penicillin-streptomycin), and fed with fresh differentiation medium every day until myotubes were fully formed (3 days).
Western blot: The Phospho-AMPKα (Thr172)- and Sirt1 (mouse specific)-antibody was obtained from Cell Signaling (Danvers, Mass.). C2C12 myotubes were treated as indicated in results and the cellular fractions were prepared using standard methods. Protein was measured by BCA kit (Thermo Scientific). […] Visualization and chemiluminescent detection was conducted using BioRad ChemiDoc instrumentation and software (Bio-Rad Laboratories, Hercules, Calif.) and band intensity was assessed using Image Lab 4.0 (Bio-Rad Laboratories, Hercules, Calif.), with correction for background and loading controls. P-AMPK was detected at 61-66 kDA and Sirt1 was detected at 104-115 kDA.

Sirt1 = Sirt1 protein expression Western blot in myotubes; format: cell-based, mouse; details: C2C12 myotubes, FIG. 12
Protocol: as §1, with “For differentiation of C2C12 cells, cells were grown to 100% confluence, transferred to differentiation medium (DMEM with 2% horse serum and 1% penicillin-streptomycin), and fed with fresh differentiation medium every day until myotubes were fully formed (3 days).” left out
Western blot: The Phospho-AMPKα (Thr172)- and Sirt1 (mouse specific)-antibody was obtained from Cell Signaling (Danvers, Mass.). […] Protein was measured by BCA kit (Thermo Scientific). […] Visualization and chemiluminescent detection was conducted using BioRad ChemiDoc instrumentation and software (Bio-Rad Laboratories, Hercules, Calif.) and band intensity was assessed using Image Lab 4.0 (Bio-Rad Laboratories, Hercules, Calif.), with correction for background and loading controls. P-AMPK was detected at 61-66 kDA and Sirt1 was detected at 104-115 kDA.

[1] = Circulating level achieved by dietary dosing; format: in vivo, human
Description: In some embodiments, the dosing of leucine, any metabolites of leucine, and/or vitamin B6 can be designed to achieve a specified physiological concentration or circulating level of leucine, metabolites of leucine and/or vitamin B6. The physiological concentration can be a circulating level as measured in the blood stream of a subject. The subject can be a human or an animal. A selected dosing can be altered based on the characteristics of the subject, such as weight, rate of energy metabolism, genetics, ethnicity, height, or any other characteristic. The amount of leucine in a unit dose can be such that the circulating level of leucine in a subject is about or greater than about 0.25 mM, 0.5 mM, 0.75 mM, or 1 mM. A dosing of about 1,125 mg leucine can achieve a circulating level of leucine in a subject that is about 0.5 mM. A dosing of about 300 mg leucine can achieve a circulating level of leucine in a subject that is about 0.25 mM. A dosing of about 15 mg of vitamin B6 can achieve a circulating level of vitamin B6 that is about 100 nM. A dosing of about 7.5 mg of vitamin B6 can achieve a circulating level of vitamin B6 that is about 50 nM. The amount of vitamin B6 in a unit dose can be such that the circulating level of vitamin B6 in a subject is about or greater than about 10, 25, 50, 100, 150, or 200 nM. […]

CC(C)C[C@H](N)C(=O)O [Leucine, leucine]
increase in fatty acid oxidation (C2C12 myotubes): 73% | AMPK activation (Phosphorylated AMPK Thr172), increase (Phospho-AMPKα (Thr172)): Neither treatment with leucine, valine, nor B6 alone exerted any significant effect | Sirt1 protein levels, increase (Sirt1): unaffected | circulating level of leucine ([1]; dosing of about 300 mg leucine): about 0.25 mM | circulating level of leucine ([1]; dosing of about 1,125 mg leucine): about 0.5 mM
